Experimental data as given in patent US10168338B2, “Methods of identifying modulators of sestrin-gator-2 interaction for modulating mTORC1 activity” (Whitehead Institute for Biomedical Research, priority 2014, dated 2019).

Columns and labels:
mTORC1 = mTORC1 signaling in HEK-293T cells (S6K1 phosphorylation immunoblot); assay type: cell-based, human; conditions: v-ATPase inhibition
Procedure: Immunoprecipitated proteins were denatured by the addition of 50 μl of sample buffer and boiling for 5 minutes as described (Kim et al., 2002), resolved by 8%-16% SDS-PAGE, and analyzed by immunoblotting using the appropriate antibody (antibodies to phospho-T389 S6K1, S6K1, Sestrin2, mTOR, Mios and FLAG all obtained from Cell Signaling Technology; antibodies to WDR24 and WDR59 were generously provided by Jianxin Xie at Cell Signaling Technology).
(§1) In order to determine the effect of amino acids on the GATOR2-Sestrin interaction, transfected cells were incubated in amino acid free RPMI for 50 minutes and then stimulated with amino acids for 10 minutes. For glucose starvation, cells were incubated in RPMI media lacking glucose but containing amino acids and dialyzed serum for 50 minutes, followed by a 10 minute restimulation with 5 mM D-Glucose. For insulin deprivation, cells were incubated in RPMI without serum for 50 minutes and restimulated with 1 μg/ml insulin for 10 minutes. Finally, when Torin1 or Rapamycin was used, cells were incubated with 250 nM of each throughout the starvation and restimulation period.

[1] = biological target: T1, GATOR2-Sestrin2 interaction (Homo sapiens, UniProt P58004); assay: Sestrin2-GATOR2 interaction in HEK-293T cells after starvation/restimulation (co-immunoprecipitation); assay type: cell-based
T1 construct: To isolate the FLAG-WDR24/endogenous-Sestrin2 complex; endogenous in cells; host or cells: HEK-293T cells stably expressing FLAG-WDR24; Sestrin2 and the other GATOR2 subunits are endogenous
T1 sequence (P58004 1-480): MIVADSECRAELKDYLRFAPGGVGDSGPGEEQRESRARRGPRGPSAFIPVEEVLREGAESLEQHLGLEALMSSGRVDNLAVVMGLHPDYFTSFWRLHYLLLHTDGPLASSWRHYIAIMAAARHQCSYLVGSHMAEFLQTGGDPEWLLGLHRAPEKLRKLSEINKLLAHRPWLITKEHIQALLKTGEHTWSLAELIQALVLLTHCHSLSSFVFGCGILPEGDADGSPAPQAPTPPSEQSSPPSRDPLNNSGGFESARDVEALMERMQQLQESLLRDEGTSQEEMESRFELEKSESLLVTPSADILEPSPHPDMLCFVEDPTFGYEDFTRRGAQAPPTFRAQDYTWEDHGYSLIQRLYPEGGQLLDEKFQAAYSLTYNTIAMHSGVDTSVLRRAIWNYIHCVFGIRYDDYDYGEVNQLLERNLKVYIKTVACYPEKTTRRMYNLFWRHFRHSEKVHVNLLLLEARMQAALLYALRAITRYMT
Procedure: as §1
HEK-293T cells stably expressing FLAG-WDR24 or the control protein FLAG-metap2 (as described in Example 1) were starved for leucine, arginine, or all amino acids for 50 minutes. In some samples, cells were re-stimulated with leucine, arginine, or all amino acids for 10 minutes and then FLAG immunoprecipitates prepared from cell lysates. Immunoprecipitates and lysates were analyzed by immunoblotting for indicated proteins. Removal of either leucine or arginine from the cell media inhibited mTORC1 signaling, as indicated by S6K1 phosphorylation, to similar extents. Strikingly, however, only leucine starvation caused Sestrin2 to bind to GATOR2 inducing the interaction as effectively as complete amino acid starvation (FIG. 9A). […] Leucine starvation and stimulation also strongly regulated the interaction of endogenous Sestrin1, but not endogenous Sestrin3, with GATOR2 (Figure not shown).

[2] = biological target: T2, Sestrin-GATOR2 interaction (Homo sapiens, UniProt P58004); assay: Effect of specific amino acids on Sestrin-GATOR2 interaction (FLAG-WDR24 immunoprecipitation, immunoblot); assay type: cell-based; conditions: HEK-293T stably expressing FLAG-WDR24; starvation/restimulation, pre- or post-lysis addition, washes of immunoprecipitates
T2 construct: To isolate the FLAG-WDR24/endogenous-Sestrin2 complex; endogenous in cells; host or cells: HEK-293T cells stably expressing FLAG-WDR24; Sestrin2 and the other GATOR2 subunits are endogenous
T2 sequence (P58004 1-480): T1 sequence (P58004 1-480)
Procedure: In order to further explore if specific amino acid levels affected the Sestrin-GATOR2 interaction, HEK-293T cells stably expressing the FLAG-tagged GATOR2 component WDR24 (and FLAG-tagged metap2 as a control) were starved of either all amino acids (ALL); only leucine, arginine, and lysine (LRK); only leucine (L); only arginine (R); or only lysine (K) for 50 minutes, or starved for 50 minutes and restimulated for 10 minutes with the indicated amino acids.
HEK-293T cells stably expressing the FLAG-tagged GATOR2 component WDR24 were starved of all amino acids for 50 minutes. Individual amino acids were added pre-lysis to the cell culture media or post-lysis to cell lysates prior to FLAG immunoprecipitation.
Finally, HEK-293T cells stably expressing the FLAG-tagged GATOR2 component WDR24 were starved of all amino acids for 50 minutes. Immunoprecipitates were subjected to washes containing the indicated amounts of leucine or arginine and analyzed along with cell lysates by immunoblotting for the indicated proteins as shown in FIG. 8C.

Sestrin2 = biological target: T3, Sestrin2 (Homo sapiens, UniProt P58004); assay: [3H]-labeled amino acid binding to FLAG-Sestrin2 immunoprecipitated from HEK-293T cells; conditions: for Ki: 10 μM 3H-leucine, three experiments, read-out: inhibitory constant (Ki) for competing leucine binding to Sestrin2; for affinity for Sestrin2, times lower than the affinity of leucine: relative to leucine Kd
T3 construct: expressed in transfected cells; host or cells: HEK-293T, transient transfection of a pRK5-based cDNA plasmid, anti-FLAG immunoprecipitation
T3 sequence (P58004 1-480): T1 sequence (P58004 1-480)
Procedure: Four million HEK-293T cells were plated in a 15 cm plate four days prior to the experiment. Each plate yielded the protein for one sample. Forty-eight hours after plating, the cells were transfected via the polyethylenimine method (O. Boussif et al., PNAS (USA), 92:7297-7301 (1995)) with the pRK5-based cDNA expression plasmids indicated in the figures in the following amounts: 5 μgFLAG-Sestrin2; 12 μg of the negative control Rap2A; 5 μg WDR24; 2 μg WDR24 with 4 μg each of HA-Seh1L, HA-Sec13, HA-Mios, and HA-WDR59; 12 […] (CG11299-PD); 12 μgFLAG-Sestrin1.1; 12 μg FLAG-Sestrin1.2; 12 μg FLAG-Sestrin3; 12 μg FLAG-Sestrin2 mutants (L261A, E451A, S190A) and up to 20 μg total DNA with empty-PRK5. Forty-eight hours after transfection cells were lysed as described in Example 1. If multiple samples of the same type were represented in the experiment, the cell lysates were combined, mixed, and evenly distributed amongst the relevant tubes, to ensure equal protein amounts across samples of the same type.
Anti-FLAG immunoprecipitates were prepared as previously described, with the exception that, prior to incubation with lysates, the beads were blocked by rotating in 1 μg/μl bovine serum albumin (BSA) for 20 minutes at 4° C. and subsequently washed twice in lysis buffer. Thirty μl of the 50/50 slurry of beads in lysis buffer was added to each of the clarified cell lysates and incubated as previously described in Example 1.
For the binding assays, two tubes at a time were washed as previously indicated for immunoprecipitations. All the liquid was subsequently aspirated and a 15 μl aliquot of proteins bound to the beads was incubated for one hour on ice in cytosolic buffer (0.1% Triton, 40 mM HEPES pH 7.4, 10 mM NaCl, 150 mM KCl, 2.5 mM MgCl2) with the appropriate amount of [^3H]-labeled amino acids and unlabeled amino acids. Tubes were flicked every five minutes. At the end of one hour, the beads were briefly spun down, aspirated dry, and rapidly washed three times with binding wash buffer (0.1% Triton, 40 mM HEPES pH 7.4, 150 mM NaCl). The beads were aspirated dry again and resuspended in 85 μl of binding wash buffer. With a cut tip, each sample was mixed well and three 10 μl aliquots were separately quantified using a TriCarb® scintillation counter (PerkinElmer). This process was repeated in pairs for each sample, to ensure similar incubation and wash times for all samples analyzed across different experiments.
Amino acid affinities to Sestrin2 were determined by first normalizing the bound [^3H]-labeled amino acid concentrations across three separate binding assays performed with varying amounts of unlabeled amino acid competition. These values were plotted and fit to a hyperbolic equation ([…]) to estimate the IC50 value. Kd or Ki values were derived from the IC50 value using the equation: Kd or Ki=IC50/(1+([[^3H]Leucine])/Kd).

Sestrin2-GATOR2 complex = biological target: T4, Sestrin2-GATOR2 complex (Homo sapiens, UniProt P58004); assay: Amino acids added directly to immunopurified Sestrin2-GATOR2 complexes (immunoblot); assay type: binding; conditions: for effect on the Sestrin2-GATOR2 interaction in vitro: 300 μM each, added directly to FLAG immunoprecipitates; for concentration acting on Sestrin2-GATOR2 complex, fold greater than leucine: added to purified complexes, relative to leucine
T4 construct: To isolate the FLAG-WDR24/endogenous-Sestrin2 complex; endogenous in cells; host or cells: HEK-293T cells stably expressing FLAG-WDR24; Sestrin2 and the other GATOR2 subunits are endogenous
T4 sequence (P58004 1-480): T1 sequence (P58004 1-480)
Procedure: We next tested if leucine acts directly on the Sestrin2-GATOR2 complex.
HEK-293T cells stably expressing FLAG-WDR24 were starved for all amino acids for 50 minutes, lysed and subjected to anti-FLAG immunoprecipitation as described previously. The GATOR2-Sestrin2 complexes immobilized on the agarose beads were washed twice in lysis buffer with 500 mM NaCl, as previously described, and then incubated for 10 minutes in 1 mL of cytosolic buffer with the indicated concentrations of individual amino acids. The amount of GATOR2 and Sestrin2 that remained bound was assayed by SDS-PAGE and immunoblotting as described previously.

C/C=C/[C@H]1O[C@@](O)([C@@H](C)[C@H](O)[C@H](C)[C@H]2OC(=O)/C(OC)=C/C(C)=C/[C@@H](C)[C@@H](O)[C@@H](CC)[C@@H](O)[C@H](C)C/C(C)=C/C=C/[C@@H]2OC)C[C@@H](O[C@H]2C[C@@H](O)[C@H](OC(N)=O)[C@@H](C)O2)[C@@H]1C [concanamycin A]
effect on mTORC1 signaling (mTORC1): decreased mTORC1 signaling | effect on the interaction between Sestrin2 and GATOR2 ([1]; in the absence of amino acids): reduced the interaction between Sestrin2 and GATOR2

insulin
regulation of the Sestrin2-GATOR2 interaction by insulin treatment ([1]; serum-free 50 minutes, 1 μg/ml insulin 10 minutes): did not regulate the Sestrin2-GATOR2 interaction

CCC(=O)N1CCN(c2ccc(-n3c(=O)ccc4cnc5ccc(-c6cnc7ccccc7c6)cc5c43)cc2C(F)(F)F)CC1 [Torin1]
effect of pretreatment on the amino acid-induced decrease in the GATOR2-Sestrin2 interaction ([1]; 250 nM throughout starvation and restimulation): did not prevent the amino acid-induced decrease in the GATOR2-Sestrin2 interaction

NCCCC[C@H](N)C(=O)O [lysine]
disruption of the Sestrin-GATOR2 interaction [2]: but not arginine or lysine, disrupts the Sestrin-GATOR2 interaction

CSCC[C@H](N)C(=O)O [methionine]
Ki (Sestrin2): 354 ± 118 µM | affinity for Sestrin2, times lower than the affinity of leucine (Sestrin2): approximately 18 times | effect on the Sestrin2-GATOR2 interaction in vitro (Sestrin2-GATOR2 complex): had any effect on the Sestrin2-GATOR2 interaction | concentration acting on Sestrin2-GATOR2 complex, fold greater than leucine (Sestrin2-GATOR2 complex): approximately 10 fold

N=C(N)NCCC[C@H](N)C(=O)O [arginine]
binding of radiolabeled amino acid to Sestrin2 (Sestrin2; FLAG-Sestrin2 from HEK-293T, competed by excess unlabeled leucine): did not bind | disruption of the Sestrin-GATOR2 interaction [2]: but not arginine or lysine, disrupts the Sestrin-GATOR2 interaction

CC(C)[C@H](N)C(=O)O [valine]
effect on the Sestrin2-GATOR2 interaction in vitro (Sestrin2-GATOR2 complex): had any effect on the Sestrin2-GATOR2 interaction

CC[C@H](C)[C@H](N)C(=O)O [isoleucine]
Ki (Sestrin2): 616 ± 273 µM | affinity for Sestrin2, times lower than the affinity of leucine (Sestrin2): ~30 times | effect on the Sestrin2-GATOR2 interaction in vitro (Sestrin2-GATOR2 complex): had any effect on the Sestrin2-GATOR2 interaction | concentration acting on Sestrin2-GATOR2 complex, fold greater than leucine (Sestrin2-GATOR2 complex): ~25 fold
